From publication PMC8981170 (RSC Advances, 2022)
Values joined by “and” are separate entries in the source; they are usually repeats but may differ in a detail not shown here. Identical values can stand only once.

Key:
Sirt1 [1] = molecular target: T1, Sirt1 (Homo sapiens, UniProt Q96EB6); experiment: Cell-based Sirt1 inhibition in HepG2 cells; settings: HepG2, read-out: % Inhibition Sirt1, HepG2 cells, 10 μM, 6 h; n = 3
T1 sequence (Q96EB6 1-747): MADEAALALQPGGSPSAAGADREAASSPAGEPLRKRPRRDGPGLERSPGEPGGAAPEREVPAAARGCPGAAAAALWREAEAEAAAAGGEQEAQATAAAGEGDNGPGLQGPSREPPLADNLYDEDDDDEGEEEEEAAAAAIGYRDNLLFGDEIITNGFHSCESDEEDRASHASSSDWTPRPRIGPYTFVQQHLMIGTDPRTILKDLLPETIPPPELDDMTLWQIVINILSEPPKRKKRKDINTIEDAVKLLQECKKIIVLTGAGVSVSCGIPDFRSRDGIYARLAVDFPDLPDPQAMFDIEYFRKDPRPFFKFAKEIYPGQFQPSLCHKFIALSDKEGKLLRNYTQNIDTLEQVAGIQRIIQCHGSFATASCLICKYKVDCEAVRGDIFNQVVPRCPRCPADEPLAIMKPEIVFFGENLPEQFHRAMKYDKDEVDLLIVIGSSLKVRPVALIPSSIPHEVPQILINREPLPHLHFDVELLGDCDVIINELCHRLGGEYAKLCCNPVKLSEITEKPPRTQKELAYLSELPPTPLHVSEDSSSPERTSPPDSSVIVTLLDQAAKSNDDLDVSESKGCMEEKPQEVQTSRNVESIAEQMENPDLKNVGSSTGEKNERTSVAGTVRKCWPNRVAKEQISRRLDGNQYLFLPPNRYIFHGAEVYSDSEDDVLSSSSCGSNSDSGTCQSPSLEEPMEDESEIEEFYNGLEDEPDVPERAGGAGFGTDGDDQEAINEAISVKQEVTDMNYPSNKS

Sirt1 [2] = molecular target: T1, Sirt1; experiment: Enzyme-based Sirt1 inhibition assay at 10 μM; assay type: biochemical; settings: for % inhibition at 10 μM Sirt1: mean of three independent experiments; for inhibition at 10 µM: read-out: % inhibition at 10 μM Sirt1, 10 μM, mean of three independent experiments
Sirt2 + Sirt3 = experiment: Cell-based Sirt2/Sirt3 joint inhibition in HepG2 cells; parameters: species or system human; settings: 10 μM, 6 h
Sirt1 [3] = molecular target: T1, Sirt1; experiment: Concentration-dependent Sirt1 inhibition
Ac-p53 in HepG2 cells = experiment: Western blotting for acetylated p53; assay type: cell-based, human; settings: 25 μM, 48 h, western blot
HepG2 cells = experiment: MTT cell viability assay, HepG2; assay type: cell-based, human; settings: 1-400 μM, 24 h
MCF7 cells = experiment: MTT cell viability assay, MCF7; assay type: cell-based, human; settings: 1-400 μM, 24 h
[4] = joint inhibition of Sirt2 and Sirt3, n = 3, 10 µM

| Compound | inhibition at 10 µM (Sirt1 [1]) [%] | % inhibition at 10 μM Sirt1 (Sirt1 [2]) [%] | inhibition at 10 µM (Sirt1 [2]) [%] | also measured |
| --- | --- | --- | --- | --- |
| COc1ccc(-c2nc3cc(C(=O)N[C@@H](CC(C)C)C(=O)O)ccc3n2C2CCCCC2)cc1 [Compound 7c] | 3.24 ± 0.27 | 86.34 | > 80 | % Inhibition Sirt2 + Sirt3 (Sirt2 + Sirt3; joint inhibition of Sirt2 and Sirt3, n = 3): 5.21 ± 0.78% |
| C[C@H](NC(=O)c1ccc2c(c1)nc(-c1ccc(F)cc1)n2C1CCCCC1)C(=O)O [Compound 7e] | – | – | < 30 | – |
| COc1ccc(-c2nc3cc(C(=O)N[C@@H](C)C(=O)O)ccc3n2C2CCCCC2)cc1 [Compound 7a] | < 1 | 88.03 | > 80 | – |
| COc1ccc(-c2nc3cc(C(=O)N[C@@H](Cc4c[nH]c5ccccc45)C(=O)O)ccc3n2C2CCCCC2)cc1 [Compound 7d] | ≥ 30 | 89.99 | > 80 | IC50 (Sirt1 [3]): 0.77 ± 0.04 µM; % Inhibition Sirt2 + Sirt3 (Sirt2 + Sirt3; [4]): 19% and 20% and 19.89 ± 0.89%; Ac-p53 levels in HepG2 cells (Ac-p53 in HepG2 cells): increased the Ac-p53 levels in HepG2 cells comparable to the positive control; Effect on HepG2 cell viability (HepG2 cells): continuous decrease in cell viability with increasing inhibitor concentration; Effect on MCF7 cell viability (MCF7 cells): continuous and comparatively higher decrease in cell viability with increasing inhibitor concentration |
| CC(C)C[C@H](NC(=O)c1ccc2c(c1)nc(-c1ccc(F)cc1)n2C1CCCCC1)C(=O)O [Compound 7g] | < 1 | – | 80.8 | – |
| CC(C)[C@H](NC(=O)c1ccc2c(c1)nc(-c1ccc(F)cc1)n2C1CCCCC1)C(=O)O [Compound 7f] | – | – | < 30 | – |
| COc1ccc(-c2nc3cc(C(=O)N[C@H](C(=O)O)C(C)C)ccc3n2C2CCCCC2)cc1 [Compound 7b] | < 1 | 88.18 | > 80 | – |
| O=C(N[C@@H](Cc1c[nH]c2ccccc12)C(=O)O)c1ccc2c(c1)nc(-c1c(F)cccc1Cl)n2C1CCCCC1 [Compound 7l] | – | – | < 30 | – |
| O=C(N[C@@H](Cc1c[nH]c2ccccc12)C(=O)O)c1ccc2c(c1)nc(-c1ccc(F)cc1)n2C1CCCCC1 [Compound 7h] | < 1 | – | 86.8 | – |

Now from value to molecule, other results behind:

| inhibition at 10 µM (Sirt1 [1]) [%] | % inhibition at 10 μM Sirt1 (Sirt1 [2]) [%] | inhibition at 10 µM (Sirt1 [2]) [%] | Compound | also measured |
| --- | --- | --- | --- | --- |
| ≥ 30 | 89.15 | > 80 | O=C(O)[C@H](Cc1c[nH]c2ccccc12)N1C(=O)C(=Cc2c[nH]nc2-c2cc(F)cc(F)c2)SC1=S [Compound 13h] | IC50 (Sirt1 [3]): 0.66 ± 0.02 µM; % Inhibition Sirt2 + Sirt3 (Sirt2 + Sirt3; [4]): 10% and 9.53 ± 0.65%; Ac-p53 levels in HepG2 cells (Ac-p53 in HepG2 cells): no major change; Effect on HepG2 cell viability (HepG2 cells): very less decrease in cell viability; Effect on MCF7 cell viability (MCF7 cells): no significant changes in cell viability |
| – | – | < 30 | C[C@@H](C(=O)O)N1C(=O)C(=Cc2c[nH]nc2-c2cc(F)cc(F)c2)SC1=S [Compound 13f] | – |
| – | – | < 30 | COc1ccc(-c2n[nH]cc2C=C2SC(=S)N([C@@H](C)C(=O)O)C2=O)cc1 [Compound 13b] | – |
| – | – | < 30 | COc1ccc(-c2n[nH]cc2C=C2SC(=S)N([C@@H](Cc3ccccc3)C(=O)O)C2=O)cc1 [Compound 13c] | – |
| ≥ 30 | 90.64 | > 80 | COc1ccc(-c2n[nH]cc2C=C2SC(=S)N([C@@H](Cc3c[nH]c4ccccc34)C(=O)O)C2=O)cc1 [Compound 13d] | IC50 (Sirt1 [3]): 0.71 ± 0.03 µM; % Inhibition Sirt2 + Sirt3 (Sirt2 + Sirt3; [4]): 6% and 6.04 ± 0.91%; Ac-p53 levels in HepG2 cells (Ac-p53 in HepG2 cells): no major change; Effect on MCF7 cell viability (MCF7 cells): no significant changes in cell viability |
| ≥ 30 | 89.64 | > 80 | O=C(O)[C@H](Cc1c[nH]c2ccccc12)N1C(=O)C(=Cc2c[nH]nc2-c2ccc([N+](=O)[O-])cc2)SC1=S [Compound 13l] | IC50 (Sirt1 [3]): 0.73 ± 0.06 µM; % Inhibition Sirt2 + Sirt3 (Sirt2 + Sirt3; [4]): 9% and 9.47 ± 0.92%; Ac-p53 levels in HepG2 cells (Ac-p53 in HepG2 cells): no major change; Effect on HepG2 cell viability (HepG2 cells): very less decrease in cell viability; Effect on MCF7 cell viability (MCF7 cells): no significant changes in cell viability |
| – | – | < 30 | C[C@@H](C(=O)O)N1C(=O)C(=Cc2c[nH]nc2-c2ccc([N+](=O)[O-])cc2)SC1=S [Compound 13j] | – |
| – | – | < 30 | O=C(O)[C@H](Cc1ccccc1)N1C(=O)C(=Cc2c[nH]nc2-c2ccc([N+](=O)[O-])cc2)SC1=S [Compound 13k] | – |
| – | – | < 30 | O=C(O)[C@H](Cc1ccccc1)N1C(=O)C(=Cc2c[nH]nc2-c2cc(F)cc(F)c2)SC1=S [Compound 13g] | – |
